Where two headings read alike, the source gives them in different places. Residues, ends and D or L forms follow the SMILES beside them.

One data set deals with E. coli (BL21). Type of data set: cell-based, Escherichia coli. The method, then: (§1) Peptides were screened against Escherichia coli (BL21), Streptococcus pyogenes (M1T1 5448, hereby referred to as M1), Pseudomonas aeruginosa (PAO1), and Staphylococcus aureus (USA300). Overnight bacterial cultures were grown in optimal media for each species: Luria-Bertani (LB) broth for E. coli, P. aeruginosa, and S. aureus, and Todd-Hewitt (TH) broth for S. pyogenes. Cultures were pelleted and re-suspended in Mueller-Hinton (MH) broth for peptide screens or minimal inhibitory concentration (MIC) assays, with 1 × 10^6 CFU/mL bacteria added per well ([Wiegand et al., 2008]). MICs for each parent peptide were identified against each bacterial strain as previously described ([Fields et al., 2018]). Members of each peptide library were screened against each bacterial strain at half of the MIC of the corresponding parent peptide to identify library members with increased antimicrobial activity relative to the parent peptide. […] Minimal bactericidal concentrations (MBCs) were determined following the respective MIC assays by plating aliquots from wells corresponding to each peptide concentration from the 96-well plate used for the MIC on species-appropriate agar. Plates were incubated at 37°C overnight, and MBCs were identified as the lowest concentrations of peptide at which no colonies were obtained. A Synergy H1 Microplate Reader (BioTek, Winooski, VT, United States) was used to determine the MICs and identify peptides with greater antimicrobial activity than the corresponding parent peptide by measuring OD 600 of the bacterial cultures in 96-well microtiter plates.

The test system of the next data set is S. pyogenes (M1). Type of data set: cell-based, Streptococcus pyogenes. The settings on record: for MBC: M1; for MIC: M1, 16 h. The method, then: as §1
A further data set relates to S. aureus (USA300). Type of data set: cell-based, Staphylococcus aureus. As to conditions: for MBC: USA300; for MIC: USA300, 16 h. The method, then:
as §1

In the next data set the test system is P. aeruginosa (PAO1). The format is cell-based, Pseudomonas aeruginosa. The settings on record: for MBC: PAO1; for MIC: PAO1, 16 h. The method, then:
as §1

The subject of the next data set is sheep erythrocytes. Type of data set: cell-based. As to conditions: red cells of sheep, 1 h. As to the method:
To determine if peptide variants were hemolytic, fresh defibrinated whole sheep blood (Hardy Diagnostics) was washed three times in cold PBS, and washed blood was diluted 1:25 in PBS. Treatments were applied at a 1:10 ratio of sample:blood, where the sample was either 10% Triton, PBS, or a specific peptide concentration corresponding to concentrations used in the MIC assays. Treatments were incubated with the blood for 1 h at 37°C. Following incubation, samples were centrifuged at […] for 10 min at 4°C, and the absorbance of the supernatants at 450 nm was measured on the Synergy H1 Microplate Reader to measure the release of hemoglobin. Percent hemolysis was quantified by normalizing to the negative and positive controls.

On to `CC[C@H](C)[C@H](NC(=O)[C@H](CCCNC(=N)N)NC(=O)CNC(=O)[C@@H](NC(=O)[C@H](CCCCN)NC(=O)[C@H](CCCNC(=N)N)NC(=O)[C@@H](NC(=O)[C@H](Cc1ccc(O)cc1)NC(=O)[C@H](CCCNC(=N)N)NC(=O)[C@H](CCCNC(=N)N)NC(=O)[C@H](CC(C)C)NC(=O)[C@H](CCC(=O)O)NC(=O)[C@H](CCCCN)NC(=O)[C@H](C)NC(=O)[C@@H](NC(=O)[C@H](CCCNC(=N)N)NC(=O)[C@H](CC(N)=O)NC(=O)[C@@H](NC(=O)[C@H](CCCCN)NC(=O)[C@H](C)N)[C@@H](C)O)[C@@H](C)CC)[C@@H](C)CC)C(C)C)C(=O)N[C@@H](C)C(=O)N[C@@H](CCCNC(=N)N)C(=O)N[C@@H](CCCCN)C(=O)N[C@@H](C)C(=O)N[C@@H](Cc1c[nH]c2ccccc12)C(=O)O` [Syn-sordellicin-96] (H-AKTNRIAKELRRYIRKVGRIARKAW-OH; N-terminus and C-terminus assumed), for which the MBC (commonly the smallest concentration meeting the test's criterion for killing) amounted to 0.25 µM in the data set on E. coli (BL21) (E. coli BL21), 0.5 µM in the data set on S. pyogenes (M1), 32 µM in the data set with S. aureus (USA300) and 16 µM in the data set on P. aeruginosa (PAO1). Moreover, the MIC (in general, the lowest concentration found to suppress growth) in the data set with E. coli (BL21) (E. coli BL21) amounted to 0.25 µM; with S. pyogenes (M1) it was 0.5 µM; in the data set on S. aureus (USA300), 32 µM; in the data set with P. aeruginosa (PAO1), 8 µM. The “Percent Hemolysis” value with sheep erythrocytes is 14.6%.

As for `CC[C@H](C)[C@H](NC(=O)[C@H](Cc1ccc(O)cc1)NC(=O)[C@H](CCCCN)NC(=O)[C@H](CCCCN)NC(=O)[C@H](CC(C)C)NC(=O)[C@H](CCC(=O)O)NC(=O)[C@H](CCCCN)NC(=O)[C@H](Cc1c[nH]c2ccccc12)NC(=O)[C@@H](NC(=O)[C@H](CCCNC(=N)N)NC(=O)[C@H](CCC(=O)O)NC(=O)[C@H](CO)NC(=O)CNC(=O)[C@H](C)N)[C@@H](C)CC)C(=O)N[C@@H](CCCCN)C(=O)N[C@@H](CCCCN)C(=O)NCC(=O)N[C@@H](CCCCN)C(=O)N[C@@H](CCCCN)C(=O)N[C@H](C(=O)N[C@H](C(=O)N[C@@H](CCCNC(=N)N)C(=O)N[C@@H](C)C(=O)N[C@@H](C)C(=O)N[C@@H](Cc1c[nH]c2ccccc12)C(=O)O)[C@@H](C)CC)C(C)C` [Syn-enterocin-24] (H-AGSERIWKELKKYIKKGKKVIRAAW-OH; N-terminus and C-terminus assumed), the MBC was 2 µM in the data set with E. coli (BL21) (BL21), 16 µM in the data set with S. pyogenes (M1), greater than 128 µM in the data set on S. aureus (USA300) and 16 µM in the data set with P. aeruginosa (PAO1). Besides, the MIC in the data set with E. coli (BL21) (BL21, 16 h) was found to be 2 µM; in the data set with S. pyogenes (M1), 16 µM; in the data set with S. aureus (USA300), 64 µM; in the data set with P. aeruginosa (PAO1) it was 8 µM. In the data set with sheep erythrocytes, the “Percent Hemolysis” value was 10.5%.

Turning to `CC[C@H](C)[C@H](NC(=O)[C@H](CCC(=O)O)NC(=O)[C@H](CCCNC(=N)N)NC(=O)[C@H](CCCNC(=N)N)NC(=O)[C@H](CC(C)C)NC(=O)[C@H](Cc1ccc(O)cc1)NC(=O)[C@H](CCCCN)NC(=O)[C@H](C)NC(=O)[C@@H](NC(=O)[C@@H](NC(=O)[C@H](CCC(N)=O)NC(=O)[C@H](CCCNC(=N)N)NC(=O)CNC(=O)[C@H](C)N)[C@@H](C)O)[C@@H](C)CC)C(=O)N[C@@H](CCCNC(=N)N)C(=O)N[C@@H](CCCCN)C(=O)N[C@@H](CCCNC(=N)N)C(=O)NCC(=O)N[C@@H](CCCNC(=N)N)C(=O)N[C@@H](CCCCN)C(=O)N[C@@H](Cc1c[nH]c2ccccc12)C(=O)N[C@H](C(=O)N[C@H](C(=O)N[C@@H](C)C(=O)N[C@@H](Cc1c[nH]c2ccccc12)C(=O)O)[C@@H](C)CC)C(C)C` [Syn-sordellicin-50] (H-AGRQTIAKYLRREIRKRGRKWVIAW-OH; N-terminus and C-terminus assumed), the MBC is 1 µM with E. coli (BL21) (BL21), 2 µM in the data set with S. pyogenes (M1), greater than 128 µM in the data set on S. aureus (USA300) and 16 µM with P. aeruginosa (PAO1). The MIC with E. coli (BL21) (BL21, 16 h) is 1 µM; in the data set on S. pyogenes (M1) it was 2 µM; with S. aureus (USA300), greater than 128 µM; in the data set on P. aeruginosa (PAO1), 8 µM. For the same compound, the “Percent Hemolysis” value in the data set with sheep erythrocytes came out at 11.5%.

On to `CC[C@H](C)[C@H](NC(=O)[C@H](Cc1c[nH]c2ccccc12)NC(=O)[C@H](CCC(N)=O)NC(=O)[C@H](CCCNC(=N)N)NC(=O)CNC(=O)[C@H](C)N)C(=O)N[C@@H](CCCCN)C(=O)N[C@@H](C)C(=O)N[C@@H](Cc1ccc(O)cc1)C(=O)N[C@@H](CC(C)C)C(=O)N[C@@H](CCCNC(=N)N)C(=O)N[C@@H](CCCNC(=N)N)C(=O)N[C@@H](CCC(=O)O)C(=O)N[C@H](C(=O)N[C@@H](CCCNC(=N)N)C(=O)N[C@@H](CCCCN)C(=O)N[C@@H](CCCNC(=N)N)C(=O)NCC(=O)N[C@@H](CCCNC(=N)N)C(=O)N[C@@H](CCCCN)C(=O)N[C@@H](C)C(=O)N[C@H](C(=O)N[C@H](C(=O)N[C@@H](C)C(=O)N[C@@H](Cc1c[nH]c2ccccc12)C(=O)O)[C@@H](C)CC)C(C)C)[C@@H](C)CC` [Syn-sordellicin-41] (H-AGRQWIKAYLRREIRKRGRKAVIAW-OH; N-terminus and C-terminus assumed), for which the minimum bactericidal concentration (MBC) is 2 µM in the data set with E. coli (BL21) (BL21), 4 µM with S. pyogenes (M1), greater than 128 µM in the data set on S. aureus (USA300) and 16 µM in the data set on P. aeruginosa (PAO1). The MIC is 2 µM in the data set with E. coli (BL21) (BL21, 16 h); 2 µM in the data set on S. pyogenes (M1); greater than 128 µM in the data set with S. aureus (USA300); 16 µM with P. aeruginosa (PAO1). Also, the “Percent Hemolysis” value in the data set with sheep erythrocytes was found to be 15.5%.

`CC[C@H](C)[C@H](NC(=O)[C@H](CCCCN)NC(=O)[C@H](CCCCN)NC(=O)CNC(=O)[C@H](CCC(=O)O)NC(=O)[C@H](CC(N)=O)NC(=O)[C@@H](NC(=O)[C@@H](NC(=O)[C@H](CCCCN)NC(=O)[C@H](CCCCN)NC(=O)[C@H](CC(C)C)NC(=O)[C@H](CCCNC(=N)N)NC(=O)[C@H](CC(N)=O)NC(=O)[C@H](Cc1ccccc1)NC(=O)[C@@H](NC(=O)[C@H](CCCCN)NC(=O)[C@H](CCC(=O)O)NC(=O)[C@@H](NC(=O)[C@H](Cc1c[nH]c2ccccc12)NC(=O)[C@H](C)N)[C@@H](C)O)[C@@H](C)CC)[C@@H](C)O)[C@@H](C)CC)C(=O)N[C@@H](C)C(=O)N[C@@H](CCCCN)C(=O)N[C@@H](CCCNC(=N)N)C(=O)N[C@@H](C)C(=O)N[C@@H](Cc1c[nH]c2ccccc12)C(=O)O` [Syn-larvacin-40] (H-AWTEKIFNRLKKTINEGKKIAKRAW-OH; N-terminus and C-terminus assumed): the MBC in the data set on E. coli (BL21) (BL21) stood at 2 µM; with S. pyogenes (M1), 4 µM; with S. aureus (USA300), 4 µM; with P. aeruginosa (PAO1), 16 µM. For the same compound, the MIC in the data set on E. coli (BL21) (BL21, 16 h) is 2 µM; in the data set with S. pyogenes (M1) it was 0.25 µM; with S. aureus (USA300), 4 µM; in the data set on P. aeruginosa (PAO1), 16 µM. The “Percent Hemolysis” value in the data set on sheep erythrocytes is listed as 17.5%.

The record behind these values is publication PMC7689250, “Synthetic Peptide Libraries Designed From a Minimal Alpha-Helical Domain of AS-48-Bacteriocin Homologs Exhibit Potent Antibacterial Activity” (Frontiers in Microbiology, 2020).
